This is an account of results in patent publication EP4786462A1, “PYRIDONE COMPOUNDS AND PREPARATION METHOD THEREFOR, AND APPLICATION” (Shenzhen Salubris Pharmaceuticals Co., Ltd., priority 2023, dated 2025).

Series [1] addresses T1, hERG channel (Homo sapiens, UniProt Q12809).
T1 construct: expressed in transfected cells
Briefly: Effect on hERG current in hERG-HEK293 cells (automated patch-clamp). Type of series: cell-based. The following applies: 30 µM compound, peak tail current vs 0.3% DMSO. In general terms: hERG is a cardiac potassium channel; its block is linked to QT prolongation.

The nature of series [2]: Pharmacokinetic experiment in rats (iv and PO administration). Type of series: in vivo. The following applies: male, rat, plasma, SD rats, 5 mg/kg; for AUC(0-t): read-out: AUC0-24h. An excerpt: Polyethylene glycol 400 (lot number R22040588, Shanghai Shaoyuan Reagent Co., Ltd.), DMSO (lot number 20200319, Guangdong Guanghua Sci-Tech Co., Ltd.), Sodium Chloride Physiological Solution (lot number 2011110727, Chenxin Pharmaceutical Co., Ltd.). LC-MS instrument (Thermo Fisher Ultimate 3000 UPLC, TSQ QUANTUM ULTRA triple quadrupole mass spectrometer, AB SCIEX 5500+ QTARP).
SD rats: Male, 180-250 g, purchased from Guangdong Vital River Laboratory Animal Technology Co., Ltd.
The test compound powder was accurately weighed and completely dissolved in DMSO. PEG-400 was added, vortexed and sonicated to mix, then sodium chloride physiological solution was added, vortexed and sonicated to mix to form a 0.5 mg/mL solution (DMSO:PEG-400:NS = 5:60:35, V/V/V). For oral gavage administration, the dose was 10 mL/kg; for intravenous administration, the dose was 2 mL/kg.
After intravenous or oral gavage administration to rats, venous blood (200 µL) was collected at 5 min (not collected for oral gavage administration), 15 min, 30 min, 1 h, 2 h, 5 h, 7 h, and 24 h into EDTA-K2-anticoagulated EP tubes. The samples were centrifuged at 10000 rpm for 2 min, and the plasma was collected and stored at -80 °C until analysis.
A certain amount of the test compound was accurately weighed and dissolved in DMSO to 2 mg/mL as a stock solution. An appropriate volume of the compound stock solution was accurately transferred and diluted with acetonitrile to prepare a series of standard solutions. 4 µL of each standard solution was accurately transferred, and 36 µL of blank plasma was added, vortexed to mix, to prepare plasma samples equivalent to plasma concentrations of 1, 3, 5, 10, 30, 100, 300, 1000, 3000 ng/mL. Each concentration was analyzed in duplicate to establish a standard curve. 30 µL of plasma was taken, and 200 µL of an acetonitrile solution containing internal standard propranolol (5 ng/mL) was added. After vortex mixing, the samples were centrifuged at 4000 rpm for 10 min, and the supernatant was taken for LC-MS analysis. The LC-MS detection conditions were as follows: Column: YMC-Triart C18, 50×2.1 mm, S-3µm, 12 nm.
Mobile phase A: water (0.1% formic acid), mobile phase B: acetonitrile, flow rate: 0.5 mL/min, gradient elution as shown in Table 2 below: Table 2
After detecting plasma concentrations by LC-MS, pharmacokinetic parameters in rats after administration were calculated using a non-compartmental model with WinNonlin 6.1 software. Table 3: Pharmacokinetic Parameters of the Compound of the Present Disclosure in Rats (iv and PO Administration)

T1 sequence (Q12809 whole entry): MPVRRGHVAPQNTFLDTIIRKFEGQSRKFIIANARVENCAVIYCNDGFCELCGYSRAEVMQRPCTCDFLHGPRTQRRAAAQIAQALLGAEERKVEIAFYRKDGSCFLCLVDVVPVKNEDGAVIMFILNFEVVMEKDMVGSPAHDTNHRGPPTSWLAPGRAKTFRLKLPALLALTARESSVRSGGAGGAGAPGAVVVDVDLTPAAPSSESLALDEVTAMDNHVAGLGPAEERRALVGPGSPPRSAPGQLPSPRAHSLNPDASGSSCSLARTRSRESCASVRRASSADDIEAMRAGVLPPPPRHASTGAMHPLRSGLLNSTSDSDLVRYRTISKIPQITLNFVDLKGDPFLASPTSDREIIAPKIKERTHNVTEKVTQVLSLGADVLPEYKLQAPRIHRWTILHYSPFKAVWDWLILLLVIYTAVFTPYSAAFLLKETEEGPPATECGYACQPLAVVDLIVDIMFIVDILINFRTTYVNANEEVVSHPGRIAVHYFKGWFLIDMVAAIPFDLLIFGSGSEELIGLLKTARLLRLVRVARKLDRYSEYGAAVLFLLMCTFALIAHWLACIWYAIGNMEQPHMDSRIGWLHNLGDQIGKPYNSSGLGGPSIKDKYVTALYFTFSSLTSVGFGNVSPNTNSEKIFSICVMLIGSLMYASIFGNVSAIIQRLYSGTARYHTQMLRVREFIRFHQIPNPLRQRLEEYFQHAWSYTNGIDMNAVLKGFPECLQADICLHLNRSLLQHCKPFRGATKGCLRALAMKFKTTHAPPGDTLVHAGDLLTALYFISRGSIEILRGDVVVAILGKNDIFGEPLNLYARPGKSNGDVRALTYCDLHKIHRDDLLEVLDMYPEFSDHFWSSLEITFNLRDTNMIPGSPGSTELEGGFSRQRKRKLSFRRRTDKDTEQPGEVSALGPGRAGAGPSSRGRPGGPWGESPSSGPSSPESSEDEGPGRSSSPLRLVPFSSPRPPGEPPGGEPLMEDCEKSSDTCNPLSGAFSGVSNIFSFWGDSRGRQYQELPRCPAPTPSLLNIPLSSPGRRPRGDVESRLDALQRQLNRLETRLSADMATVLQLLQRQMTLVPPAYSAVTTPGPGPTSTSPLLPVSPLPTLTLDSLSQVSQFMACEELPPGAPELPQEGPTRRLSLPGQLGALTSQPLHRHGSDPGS

As for `O=c1ccccn1-c1ccc(N[C@H]2CC[C@H](Nc3nc4cccnc4s3)C2)nc1` [Example C15], the “hERG Inhibition (%)” value in series [1] was less than 50%. Turning to `O=c1ccccn1-c1cnc(N[C@H]2CC[C@H](Nc3nc4nccnc4s3)C2)c(F)c1` [Example C19], the “hERG Inhibition (%)” value in series [1] was less than 50%. For the compound `O=c1ccc2cccnc2n1-c1ccc(N[C@H]2CC[C@H](Nc3nc4ccccn4n3)C2)nc1` [Example C71], the “hERG Inhibition (%)” value in series [1] is given as less than 50%. The same measure, in the same setting: to `O=c1c(C2CC2)cccn1-c1ccc(N[C@H]2CC[C@H](Nc3nc4cccnc4[nH]3)C2)nc1` [Example C58] belongs less than 50%; to `COc1ccc2nc(N[C@H]3CC[C@H](Nc4ccc(-n5ccccc5=O)cn4)C3)nn2c1` [Example C21], less than 50%. A word on the half-life: it is the time needed for the level to fall by half in the phase considered. For `O=c1c(F)cccn1-c1ccc(N[C@H]2CC[C@H](Nc3ncc(OC(F)F)cn3)C2)nc1` [Example A14, 6'-(((1S,3S)-3-((5-(difluoromethoxy)pyrimidin-2-yl)amino)cyclopentyl)amino)-3-fluoro-2H-[1,3' -bipyridin]-2-one], in series [2], the half-life was 265 min and the AUC(0-t) is 31400 ng·h/mL.

`C#Cc1ccc2nc(N[C@H]3CC[C@H](Nc4ccc(-n5ccccc5=O)cn4)C3)nn2c1` [Example C26]: in series [1], the “hERG Inhibition (%)” value is listed as less than 50%. For `O=c1cccnn1-c1cnc(N[C@H]2CC[C@H](Nc3nc4cccnc4s3)C2)c(F)c1` [Example C34], in series [2], the AUC(0-t) came to 41400 ng·h/mL. Moreover, the “hERG Inhibition (%)” value in series [1] was less than 50%. For the compound `N#Cc1cccn(-c2ccc(N[C@H]3CC[C@H](Nc4ncc(OC(F)F)cn4)C3)nc2)c1=O` [Example A13, 6'-(((1S,3S)-3-((5-(difluoromethoxy)pyrimidin-2-yl)amino)cyclopentyl)amino)-2-oxo-2H-[1,3'-bipyridine]-3-carbonitrile], in series [2], the half-life was 361 min and the AUC(0-t) worked out at 42500 ng·h/mL.

For the compound `O=c1c(Cl)cccn1-c1cnc(N[C@H]2CC[C@H](Nc3nc4ccccn4n3)C2)c(F)c1` [Example C36], the “hERG Inhibition (%)” value in series [1] is on record as less than 50%. As for `COc1cc(-n2ccccc2=O)cnc1N[C@H]1CC[C@H](Nc2ncc(OC(F)F)cn2)C1` [Example A27, 6'-(((1S,3S)-3-((5-(difluoromethoxy)pyrimidin-2-yl)amino)cyclopentyl)amino)-5'-methoxy-2H-[1,3'-bipyridin]-2-one], in series [2], the half-life is 233 min and the AUC(0-t) turned out to be 32000 ng·h/mL. Further, the “30 uM-hERG Inhibition” value in series [1] was 40.72.

`O=c1ccccn1-c1cnc(N[C@H]2CC[C@H](Nc3nc4ccccn4n3)C2)cn1` [Example C9, 1-(5-(((1S,3S)-3-([1,2,4]triazolo[1,5-a]pyridin-2-ylamino)cyclopentyl)amino)pyrazin-2-yl)pyridi n-2(1H)-one]: the AUC(0-t) in series [2] is 40300 ng·h/mL. In the case of `O=c1cccnn1-c1ccc(N[C@H]2CC[C@H](Nc3nc4cccnc4[nH]3)C2)nc1` [Example C66], the “hERG Inhibition (%)” value in series [1] was less than 50%. `Cc1ccc2nc(N[C@H]3CC[C@H](Nc4ccc(-n5ccccc5=O)cn4)C3)nn2c1` [Example C32]: the “hERG Inhibition (%)” value in series [1] is given as less than 50%. In the case of `O=c1ccccn1-c1cnc(N[C@H]2CC[C@H](Nc3ncc(OC(F)F)cn3)C2)c(F)c1` [Example A17, 6'-(((1S,3S)-3-((5-(difluoromethoxy)pyrimidin-2-yl)amino)cyclopentyl)amino)-5'-fluoro-2H-[1,3 '-bipyridin]-2-one], in series [2], the half-life was 178 min and the AUC(0-t) is 43800 ng·h/mL.

Take `O=c1ccccn1-c1cnc(N[C@H]2CC[C@H](Nc3ncc(OC(F)F)cn3)C2)c(CO)c1` [Example A30]: the “30 uM-hERG Inhibition” value in series [1] is on record as 33.75. For the compound `O=c1c(Cl)cccn1-c1ccc(N[C@H]2CC[C@H](Nc3ncc(OC(F)F)cn3)C2)nc1` [Example A9, 3-chloro-6'-(((1S,3S)-3-((5-(difluoromethoxy)pyrimidin-2-yl)amino)cyclopentyl)amino)-2H-[1,3 '-bipyridin]-2-one], in series [2], the AUC(0-t) is 29400 ng·h/mL. For the compound `COc1ccn2nc(N[C@H]3CC[C@H](Nc4ccc(-n5ccccc5=O)cn4)C3)nc2c1` [Example C8, 6'-(((1S,3S)-3-((7-methoxy-[1,2,4]triazolo[1,5-a]pyridin-2-yl)amino)cyclopentyl)amino)-2H-[1,3 '-bipyridin]-2-one], the “hERG Inhibition (%)” value in series [1] was less than 50%.

Take `O=c1ccc2cccnc2n1-c1ccc(N[C@H]2CC[C@H](Nc3nc4cccnc4s3)C2)nc1` [Example C84]: the “hERG Inhibition (%)” value in series [1] was less than 50%.

`O=c1ccccn1-c1cnc(N[C@H]2CC[C@H](Nc3nc4cccnc4[nH]3)C2)c(F)c1` [Example C56]: the “hERG Inhibition (%)” value in series [1] is listed as less than 50%. Same read-out and setting: to `O=c1ccccn1-c1ccc(N[C@H]2CC[C@H](Nc3nc4ncccn4n3)C2)nc1` [Example C30] belongs less than 50%.

On to `O=c1ccccn1-c1cnc(N[C@H]2CC[C@H](Nc3nc4cccnc4s3)C2)c(F)c1` [Example C22], for which the AUC(0-t) in series [2] was 37700 ng·h/mL. In series [1], the “hERG Inhibition (%)” value is reported as less than 50%.

As to `O=C(O)c1cccn(-c2ccc(N[C@H]3CC[C@H](Nc4ncc(OC(F)F)cn4)C3)nc2)c1=O` [Example A22, 6'-(((1S,3S)-3-((5-(difluoromethoxy)pyrimidin-2-yl)amino)cyclopentyl)amino)-2-oxo-2H-[1,3'-bipyridine]-3-carboxylic acid], in series [1], the “30 uM-hERG Inhibition” value turned out to be 19.56.

In the case of `O=c1c(Cl)cccn1-c1cnc(N[C@H]2CC[C@H](Nc3nc4cccnc4[nH]3)C2)c(F)c1` [Example C61], in series [1], the “hERG Inhibition (%)” value is less than 50%. Regarding `O=c1c(Cl)ccnn1-c1cnc(N[C@H]2CC[C@H](Nc3nc4ccccn4n3)C2)c(F)c1` [Example C67], the “hERG Inhibition (%)” value in series [1] is less than 50%.

With `O=c1cccnn1-c1cnc(N[C@H]2CC[C@H](Nc3ncc(OC(F)F)cn3)C2)c(F)c1` [Example A28, 2-(6-(((1S,3S)-3-((5-(difluoromethoxy)pyrimidin-2-yl)amino)cyclopentyl)amino)-5-fluoropyridin-3-yl)pyridazin-3(2H)-one], in series [2], the AUC(0-t) was found to be 70100 ng·h/mL. On to `Cn1c(=O)n(-c2ccc(N[C@H]3CC[C@H](Nc4nc5ccccn5n4)C3)nc2)c2cc(C#N)ccc21` [Example C64], for which the “hERG Inhibition (%)” value in series [1] is on record as less than 50%. The same measure, in the same setting: under `O=c1ccccn1-c1cnc(N[C@H]2CC[C@H](Nc3nc4cccnc4o3)C2)c(F)c1` [Example C53] stands less than 50%.

In the case of `O=c1c(Cl)ccnn1-c1ccc(N[C@H]2CC[C@H](Nc3nc4ccccn4n3)C2)nc1` [Example C65], in series [1], the “hERG Inhibition (%)” value is given as less than 50%. On the same count and under the same terms, under `O=c1cccnn1-c1ccc(N[C@H]2CC[C@H](Nc3nc4ccccn4n3)C2)nc1` [Example C43] stands less than 50%.

Take `O=c1cccnn1-c1cnc(N[C@H]2CC[C@H](Nc3nc4cccnc4[nH]3)C2)c(F)c1` [Example C69]: the “hERG Inhibition (%)” value in series [1] is on record as less than 50%. On the same count and under the same terms, to `O=c1cccnn1-c1cnc(N[C@H]2CC[C@H](Nc3nc4cccnc4o3)C2)c(F)c1` [Example C48] belongs less than 50%; to `O=c1ccccn1-c1ccc(N[C@H]2CC[C@H](Nc3nc4ccccn4n3)C2)nc1` [Example C7, 6'-(((1S,3S)-3-([1,2,4]triazolo[1,5-a]pyridin-2-ylamino)cyclopentyl)amino)-2H-[1,3'-bipyridin]-2-one], less than 50%.
